Data reported in the OligoGym collection.
Where “and” joins values, the source holds several entries; their conditions need not be identical. Identical values can stand only once. After the bases stand the sugars from the 5' end (letter, count) and the backbone: PS all phosphorothioate, else s phosphorothioate and o phosphodiester by linkage. Methylation of C is not given here. e = 2'-O-(2-methoxyethyl) (MOE); k = constrained ethyl (cEt); d = 2'-deoxy (DNA)

Target: SOD1
Conditions: ASO

In the case of “CAAGGGAATGTTTATTG (sugars e2 k2 d8 k2 e3, PS)”, the target mRNA inhibition (HepG2, 4 µM) is reported as 43%.

“CAAGGGAATGTTTATTG (sugars e2 k2 d9 k2 e2, PS)” showed a target mRNA inhibition (HepG2, 4 µM) of 38%.

“CAAGTCATCTGCTTTTT (sugars e3 k2 d7 k2 e3, PS)” was tested, and the target mRNA inhibition (HepG2, 3 µM) was 42%.

With “CACATCGGCCACACCATCTT (sugars e5 d10 e5, PS)” the target mRNA inhibition (HepG2, 5 µM) was 27% and 13%.

With “CACCCCGTCTCCGCGACTAC (sugars e5 d10 e5, PS)” the target mRNA inhibition (HepG2, 4 µM) was 13%.

Sequence “CACTACAGGTACTTTAAAGC (sugars e5 d10 e5, PS)” has a target mRNA inhibition (HepG2, 5 µM) of 18%.

In the case of “CACTGGTCCATTACTTT (sugars e3 k2 d7 k2 e3, PS)”, the target mRNA inhibition (HepG2, 3 µM) is reported as 12%.

In the case of “CAGACTACATCCAAGGG (sugars e2 k2 d8 k2 e3, PS)”, the target mRNA inhibition (HepG2, 0.1875 µM) is reported as 25%, the target mRNA inhibition (HepG2, 0.75 µM) is reported as 60% and the target mRNA inhibition (HepG2, 3 µM) is reported as 84%. The target mRNA inhibition (HepG2, 4 µM) was 81% and the target mRNA inhibition (HepG2, 12 µM) was 91%.

With “CAGACTACATCCAAGGG (sugars e2 k2 d9 k2 e2, PS)” the target mRNA inhibition (HepG2, 0.1875 µM) was 28%, the target mRNA inhibition (HepG2, 0.75 µM) was 55% and the target mRNA inhibition (HepG2, 3 µM) was 74%. It also gave a target mRNA inhibition (HepG2, 4 µM) of 78% and a target mRNA inhibition (HepG2, 12 µM) of 91%.

“CAGACTACATCCAAGGG (sugars e3 k2 d7 k2 e3, PS)” showed a target mRNA inhibition (HepG2, 3 µM) of 53%.

Sequence “CAGGATAACAGATGAGT (sugars e2 k2 d9 k2 e2, PS)” has a target mRNA inhibition (HepG2, 0.1875 µM) of 56%, a target mRNA inhibition (HepG2, 0.75 µM) of 89% and a target mRNA inhibition (HepG2, 3 µM) of 93%. For the same sequence, the target mRNA inhibition (HepG2, 4 µM) was 96% and the target mRNA inhibition (HepG2, 12 µM) was 96%.

Sequence “CAGGATACATTTCTACAG (sugars e5 d8 e5, linkages s1 o3 s9 o2 s2)” has a target mRNA inhibition (A431, 0.12 µM) of 2%, a target mRNA inhibition (A431, 0.6 µM) of 31% and a target mRNA inhibition (A431, 3 µM) of 9%. The target mRNA inhibition (A431, 15 µM) was 18%, the target mRNA inhibition (HepG2, 0.222 µM) was 14% and the target mRNA inhibition (HepG2, 0.667 µM) was 31%. The target mRNA inhibition (HepG2, 2 µM) was 54% and the target mRNA inhibition (HepG2, 6 µM) was 84%.

For “CAGGATACATTTCTACAGCT (sugars e5 d10 e5, linkages s1 o3 s11 o3 s1)”, the target mRNA inhibition (A431, 0.12 µM) was 13%, the target mRNA inhibition (A431, 0.6 µM) was 24% and the target mRNA inhibition (A431, 3 µM) was 41%. For the same sequence, the target mRNA inhibition (A431, 15 µM) was 62%, the target mRNA inhibition (HepG2, 0.222 µM) was 38% and the target mRNA inhibition (HepG2, 0.667 µM) was 70%. The target mRNA inhibition (HepG2, 2 µM) was 95% and the target mRNA inhibition (HepG2, 6 µM) was 88%.

“CAGGATACATTTCTACAGCT (sugars e5 d10 e5, linkages s1 o4 s10 o2 s2)” showed a target mRNA inhibition (A431, 0.062 µM) of 18%, a target mRNA inhibition (A431, 0.185 µM) of 28% and a target mRNA inhibition (A431, 0.556 µM) of 45%. For the same sequence, the target mRNA inhibition (A431, 1.667 µM) was 70%, the target mRNA inhibition (A431, 5 µM) was 69% and the target mRNA inhibition (A431, 15 µM) was 81%. The target mRNA inhibition (SH-SY5Y, 0.062 µM) was 0%, the target mRNA inhibition (SH-SY5Y, 0.185 µM) was 17% and the target mRNA inhibition (SH-SY5Y, 0.556 µM) was 49%. The target mRNA inhibition (SH-SY5Y, 1.667 µM) was 62%, the target mRNA inhibition (SH-SY5Y, 5 µM) was 83% and the target mRNA inhibition (SH-SY5Y, 15 µM) was 91%.

With “CAGTCAGTCCTTTAATGCTT (sugars e5 d10 e5, PS)” the target mRNA inhibition (HepG2, 5 µM) was 35% and 29%.

Work on “CAGTGTTTAATGTTTAT (sugars e2 k2 d9 k2 e2, PS)” yielded a target mRNA inhibition (HepG2, 0.1875 µM) of 45%, a target mRNA inhibition (HepG2, 0.75 µM) of 73% and a target mRNA inhibition (HepG2, 3 µM) of 84%. The target mRNA inhibition (HepG2, 4 µM) was 84%, the target mRNA inhibition (HepG2, 5 µM) was 85% and the target mRNA inhibition (HepG2, 12 µM) was 82% and 87%.

Sequence “CAGTTTCTCACTACAGG (sugars e2 k2 d8 k2 e3, PS)” has a target mRNA inhibition (HepG2, 5 µM) of 38%.

In the case of “CATCTGCTTTTTCATGGACC (sugars e5 d10 e5, PS)”, the target mRNA inhibition (HepG2, 3 µM) is reported as 46%.

Work on “CATGCAGGCCTTCAGTC (sugars e3 k2 d7 k2 e3, PS)” yielded a target mRNA inhibition (HepG2, 3 µM) of 41%.

With “CATGCAGGCCTTCAGTCAGT (sugars e5 d10 e5, PS)” the target mRNA inhibition (HepG2, 5 µM) was 37% and 33%.

In the case of “CATTGAAACAGACATTT (sugars e3 k2 d7 k2 e3, PS)”, the target mRNA inhibition (HepG2, 3 µM) is reported as 11%.

“CCAAGTCATCTGCTTTT (sugars e3 k2 d7 k2 e3, PS)” gave a target mRNA inhibition (HepG2, 3 µM) of 50%.

In the case of “CCAATGATGCAATGGTCTCC (sugars e5 d10 e5, PS)”, the target mRNA inhibition (HepG2, 5 µM) is reported as 8%.

Work on “CCAATTACACCACAAGC (sugars e2 k2 d8 k2 e3, PS)” yielded a target mRNA inhibition (HepG2, 4 µM) of 66%.

“CCACACCTTCACTGGTC (sugars e3 k2 d7 k2 e3, PS)” showed a target mRNA inhibition (HepG2, 3 µM) of 36%.

Sequence “CCACCAGTGTGCGGCCAATG (sugars e5 d10 e5, PS)” has a target mRNA inhibition (HepG2, 5 µM) of 22%.

For “CCACCTTTGCCCAAGTC (sugars e3 k2 d7 k2 e3, PS)”, the target mRNA inhibition (HepG2, 3 µM) was 91%.

In the case of “CCATACAGGGTTTTTAT (sugars e2 k2 d9 k2 e2, PS)”, the target mRNA inhibition (HepG2, 5 µM) is reported as 34%.

“CCCAATTACACCACAAG (sugars e2 k2 d9 k2 e2, PS)” gave a target mRNA inhibition (HepG2, 0.1875 µM) of 25%, a target mRNA inhibition (HepG2, 0.75 µM) of 52% and a target mRNA inhibition (HepG2, 3 µM) of 82%. For the same sequence, the target mRNA inhibition (HepG2, 4 µM) was 74% and the target mRNA inhibition (HepG2, 12 µM) was 97%.

“CCCAATTACACCACAAG (sugars e3 k2 d7 k2 e3, PS)” gave a target mRNA inhibition (HepG2, 3 µM) of 29%.

For “CCCACACCTTCACTGG (sugars ekddddddddekekee, linkages s1 o1 s8 o3 s2)”, the target mRNA inhibition (A431, 0.12 µM) was 2%, the target mRNA inhibition (A431, 0.6 µM) was 0% and the target mRNA inhibition (A431, 3 µM) was 0%. It also gave a target mRNA inhibition (A431, 15 µM) of 12%, a target mRNA inhibition (HepG2, 0.222 µM) of 15% and a target mRNA inhibition (HepG2, 0.667 µM) of 31%. It also gave a target mRNA inhibition (HepG2, 2 µM) of 58% and a target mRNA inhibition (HepG2, 6 µM) of 81%.

Sequence “CCCACACCTTCACTGGT (sugars e3 k2 d7 k2 e3, PS)” has a target mRNA inhibition (HepG2, 3 µM) of 18%.

In the case of “CCCCACACCTTCACTG (sugars ekddddddddekekee, linkages s1 o1 s8 o3 s2)”, the target mRNA inhibition (A431, 0.12 µM) is reported as 0%, the target mRNA inhibition (A431, 0.6 µM) is reported as 0% and the target mRNA inhibition (A431, 3 µM) is reported as 0%. For the same sequence, the target mRNA inhibition (A431, 15 µM) was 0%, the target mRNA inhibition (HepG2, 0.222 µM) was 21% and the target mRNA inhibition (HepG2, 0.667 µM) was 36%. The target mRNA inhibition (HepG2, 2 µM) was 60% and the target mRNA inhibition (HepG2, 6 µM) was 75%.

For “CCCTTCAGCACGCACAC (sugars e2 k2 d9 k2 e2, PS)”, the target mRNA inhibition (HepG2, 0.1875 µM) was 14%, the target mRNA inhibition (HepG2, 0.75 µM) was 47% and the target mRNA inhibition (HepG2, 3 µM) was 82%. It also gave a target mRNA inhibition (HepG2, 4 µM) of 81% and a target mRNA inhibition (HepG2, 12 µM) of 97%.

“CCCTTCAGCACGCACACGGC (sugars e5 d10 e5, PS)” was tested, and the target mRNA inhibition (HepG2, 0.1875 µM) was 17%, the target mRNA inhibition (HepG2, 0.75 µM) was 26% and the target mRNA inhibition (HepG2, 3 µM) was 59%. It also gave a target mRNA inhibition (HepG2, 4 µM) of 37% and a target mRNA inhibition (HepG2, 12 µM) of 83%.

Work on “CCGAGGTCCTGGTTCCGAGG (sugars e5 d10 e5, PS)” yielded a target mRNA inhibition (HepG2, 4 µM) of 18%.

“CCGTCGCCCTTCAGCAC (sugars e2 k2 d8 k2 e3, PS)” gave a target mRNA inhibition (HepG2, 4 µM) of 71%.

“CCGTCTCCGCGACTACTTTA (sugars e5 d10 e5, PS)” was tested, and the target mRNA inhibition (HepG2, 4 µM) was 20%.

In the case of “CCGTGTTTTCTGGATAGAGG (sugars e5 d10 e5, PS)”, the target mRNA inhibition (HepG2, 5 µM) is reported as 44% and 37%.

Work on “CCTCAGACTACATCCAA (sugars e2 k2 d8 k2 e3, PS)” yielded a target mRNA inhibition (HepG2, 0.1875 µM) of 26%, a target mRNA inhibition (HepG2, 0.75 µM) of 51% and a target mRNA inhibition (HepG2, 3 µM) of 77%. For the same sequence, the target mRNA inhibition (HepG2, 4 µM) was 73% and the target mRNA inhibition (HepG2, 12 µM) was 91%.

For “CCTCAGACTACATCCAA (sugars e3 k2 d7 k2 e3, PS)”, the target mRNA inhibition (HepG2, 0.1875 µM) was 16%, the target mRNA inhibition (HepG2, 0.75 µM) was 42% and the target mRNA inhibition (HepG2, 3 µM) was 58% and 70%. The target mRNA inhibition (HepG2, 12 µM) was 84%.

For “CCTTCACTGGTCCATTA (sugars e3 k2 d7 k2 e3, PS)”, the target mRNA inhibition (HepG2, 3 µM) was 8%.

With “CGAAATTGATGATGCCCTGC (sugars e5 d10 e5, PS)” the target mRNA inhibition (HepG2, 4 µM) was 32%.

“CGCAAACCAGCACCCCGTCT (sugars e5 d10 e5, PS)” was tested, and the target mRNA inhibition (HepG2, 4 µM) was 21%.

Sequence “CGCCGAGGTCCTGGTTCCGA (sugars e5 d10 e5, PS)” has a target mRNA inhibition (HepG2, 4 µM) of 24%.

For “CGTCGCCCTTCAGCACG (sugars e2 k2 d9 k2 e2, PS)”, the target mRNA inhibition (HepG2, 4 µM) was 43%.

“CTACGACGCAAACCAGCACC (sugars e5 d10 e5, PS)” showed a target mRNA inhibition (HepG2, 4 µM) of 19%.

Work on “CTAGCAGGATAACAGAT (sugars e3 k2 d7 k2 e3, PS)” yielded a target mRNA inhibition (HepG2, 3 µM) of 39%.

Sequence “CTAGGCCACGCCGAGGTCCT (sugars e5 d10 e5, PS)” has a target mRNA inhibition (HepG2, 4 µM) of 39%.
